Where two headings read alike, the source gives them in different places.
Columns and labels:
HCV replicon = HCV replicon FRET assay; assay type: cell-based; settings: Hepatitis C virus, FRET assay, read-out: EC50*
Method in brief: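 HCV replicon cells, with or without Renilla luciferase reporter, incubated with titrated compounds at 37 °C; Alamar blue read for cytotoxicity. NS3 protease activity read from lysates with 20 μM EDANS/DABCYL FRET peptide (340/490 nm, kinetic), or by Dual-Glo luciferase. Background from highest protease-inhibitor wells; EC50 = 50% signal reduction.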

HCV NS5B = target: T1, HCV NS5B (Hepatitis C virus genotype 1b, UniProt Q9WMX2); assay: HCV NS5B RdRp enzyme assay (preincubation protocol); assay type: biochemical
T1 construct: The protein was expressed with an 18 amino acid C-terminal truncation to enhance the solubility; made in house; host or cells: E. coli BL21 (DE3), pET21a
Method in brief: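 C-terminally truncated (Δ18) genotype 1b NS5B from E. coli, 14 nM, added to compound, then polyA template (0.2 nM), 3H-UTP (0.29 μM) and oligo-dT12 primer precaptured on streptavidin SPA beads. 4 h at 30 °C, pH 7.5, 2% DMSO; SPA readout; IC50 from seven concentrations by logistic fit.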

T1 sequence (Q9WMX2 2420-2992): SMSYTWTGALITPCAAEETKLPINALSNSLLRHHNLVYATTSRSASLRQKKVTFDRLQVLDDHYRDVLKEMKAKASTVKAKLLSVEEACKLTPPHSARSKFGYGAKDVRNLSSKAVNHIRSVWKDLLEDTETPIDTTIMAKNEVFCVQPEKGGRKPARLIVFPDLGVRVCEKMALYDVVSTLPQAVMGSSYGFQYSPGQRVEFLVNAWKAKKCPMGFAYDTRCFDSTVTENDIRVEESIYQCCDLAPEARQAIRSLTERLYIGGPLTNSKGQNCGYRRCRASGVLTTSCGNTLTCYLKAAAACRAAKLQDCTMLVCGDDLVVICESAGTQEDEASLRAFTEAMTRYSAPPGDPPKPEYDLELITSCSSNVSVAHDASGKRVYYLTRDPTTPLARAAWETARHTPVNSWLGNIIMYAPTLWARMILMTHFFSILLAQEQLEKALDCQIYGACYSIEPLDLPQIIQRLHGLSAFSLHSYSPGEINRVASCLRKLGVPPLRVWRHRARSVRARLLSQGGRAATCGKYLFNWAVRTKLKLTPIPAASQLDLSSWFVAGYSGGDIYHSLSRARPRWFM

Row | Compound | EC50 (HCV replicon; Table 1) [nM] | IC50 (HCV NS5B; Table 1, read-out: IC50*) [nM] | EC50 (HCV replicon; Table 1a) [nM] | IC50 (HCV NS5B; Table 1a, read-out: IC50*) [nM]
1 | CC(C)(C)OC(=O)N1CCN(C(=O)C2=Cc3ccccc3-c3c(C4CCCCC4)c4ccc(C(=O)O)cc4n3C2)CC1 | 70 to 1000 | 10 to 1000 |  | 
2 | C[C@@H]1CN(C(=O)c2ccccc2)CCN1C(=O)C1=Cc2ccccc2-c2c(C3CCCCC3)c3ccc(C(=O)O)cc3n2C1 | 70 to 1000 | 10 to 1000 |  | 
3 | O=C(O)c1ccc2c(C3CCCCC3)c3n(c2c1)CC(C(=O)N1CCN(C(=O)N2CCOCC2)CC1)=Cc1ccccc1-3 | 70 to 1000 | 10 to 1000 |  | 
4 | Cc1ccc(S(=O)(=O)N2CCN(C(=O)C3=Cc4ccccc4-c4c(C5CCCCC5)c5ccc(C(=O)NS(=O)(=O)N(C)C)cc5n4C3)CC2)cc1 | 70 to 1000 | 10 to 1000 |  | 
5 | CC1CN(C(=O)OC(C)(C)C)CCN1C(=O)C1=Cc2ccccc2-c2c(C3CCCCC3)c3ccc(C(=O)NS(=O)(=O)N(C)C)cc3n2C1 (stereo not shown) | 70 to 1000 | 10 to 1000 |  | 
6 | COc1ccc(S(=O)(=O)N2CCN(C(=O)C3=Cc4ccccc4-c4c(C5CCCCC5)c5ccc(C(=O)NS(=O)(=O)N(C)C)cc5n4C3)CC2)cc1 | 70 to 1000 | 10 to 1000 |  | 
7 | CCOC(=O)CN1CCN(C(=O)C2=Cc3ccccc3-c3c(C4CCCCC4)c4ccc(C(=O)NS(=O)(=O)N(C)C)cc4n3C2)CC1 | 70 to 1000 | 10 to 1000 |  | 
8 | CN(C)S(=O)(=O)NC(=O)c1ccc2c(C3CCCCC3)c3n(c2c1)CC(C(=O)N1CCN(CC(=O)N2CCOCC2)CC1)=Cc1ccccc1-3 | 70 to 1000 | 10 to 1000 |  | 
9 | CN(C)S(=O)(=O)NC(=O)c1ccc2c(C3CCCCC3)c3n(c2c1)CC(C(=O)N1CCN(C(=O)C2COc4ccccc4O2)CC1)=Cc1ccccc1-3 (stereo not shown) | 70 to 1000 | 10 to 1000 |  | 
10 | COCCN1CCN(C(=O)C2=Cc3ccccc3-c3c(C4CCCCC4)c4ccc(C(=O)NS(=O)(=O)N(C)C)cc4n3C2)CC1 | 70 to 1000 | 10 to 1000 |  | 
11 | CCS(=O)(=O)N1CCN(C(=O)C2=Cc3ccccc3-c3c(C4CCCCC4)c4ccc(C(=O)NS(=O)(=O)N(C)C)cc4n3C2)CC1 | 70 to 1000 | 10 to 1000 |  | 
12 | CN(C)S(=O)(=O)NC(=O)c1ccc2c(C3CCCCC3)c3n(c2c1)CC(C(=O)N1CCN2C(=O)c4ccccc4CC2C1)=Cc1ccccc1-3 (stereo not shown) | 70 to 1000 | 10 to 1000 |  | 
13 | CN(C)S(=O)(=O)NC(=O)c1ccc2c(C3CCCCC3)c3n(c2c1)CC(C(=O)N1CCN(S(=O)(=O)c2ccccc2)CC1)=Cc1ccccc1-3 | 70 to 1000 | 10 to 1000 |  | 
14 | CN(C)S(=O)(=O)NC(=O)c1ccc2c(C3CCCCC3)c3n(c2c1)CC(C(=O)N1CCN(C(=O)C2CC2)CC1)=Cc1ccccc1-3 | 70 to 1000 | 10 to 1000 |  | 
15 | COc1ccc2c(c1)C=C(C(=O)N1CCN(S(C)(=O)=O)CC1)Cn1c-2c(C2CCCCC2)c2ccc(C(=O)NS(=O)(=O)N(C)C)cc21 | 70 to 1000 | 10 to 1000 |  | 
16 | COc1ccc2c(c1)C=C(C(=O)N1CCN(S(=O)(=O)N(C)C)CC1)Cn1c-2c(C2CCCCC2)c2ccc(C(=O)NS(=O)(=O)N(C)C)cc21 | 70 to 1000 | 10 to 1000 |  | 
17 | CN(C)S(=O)(=O)NC(=O)c1ccc2c(C3CCCCC3)c3n(c2c1)CC(C(=O)N1CCN(S(C)(=O)=O)CC1)=Cc1cc(OCc2ccccc2)ccc1-3 | 70 to 1000 | 10 to 1000 |  | 
18 | CC(=O)OCC(=O)N1CCN(C(=O)C2=Cc3ccccc3-c3c(C4CCCCC4)c4ccc(C(=O)NS(=O)(=O)N5CCOCC5)cc4n3C2)CC1 | 70 to 1000 | 10 to 1000 |  | 
19 | CN(C)S(=O)(=O)NC(=O)c1ccc2c(C3CCCCC3)c3n(c2c1)CC(C(=O)N1CCN(c2nccs2)CC1)=Cc1ccccc1-3 | 70 to 1000 | 10 to 1000 |  | 
20 | CN(C)S(=O)(=O)NC(=O)c1ccc2c(C3CCCCC3)c3n(c2c1)CC(C(=O)N1CCn2cnnc2C1)=Cc1ccccc1-3 | 1000 to 10000 | 10 to 1000 |  | 
21 | CN(C)S(=O)(=O)NC(=O)c1ccc2c(C3CCCCC3)c3n(c2c1)CC(C(=O)N1CCN(c2ncncn2)CC1)=Cc1ccccc1-3 | 70 to 1000 | 10 to 1000 |  | 
22 | CC(=O)N1CCN(C(=O)C2Cc3ccccc3-c3c(C4CCCCC4)c4ccc(C(=O)NS(=O)(=O)N(C)C)cc4n3C2)CC1 (stereo not shown) | 70 to 1000 | 10 to 1000 |  | 
23 | CN(C)S(=O)(=O)NC(=O)c1ccc2c(C3CCCCC3)c3n(c2c1)CC(C(=O)N1CCN(S(C)(=O)=O)CC1)Cc1ccccc1-3 (stereo not shown) | 70 to 1000 | 10 to 1000 |  | 
24 | O=C1Cn2c(c(C3CCCCC3)c3ccc(C(=O)NS(=O)(=O)N4CCOCC4)cc32)-c2ccccc2N1 | 70 to 1000 | 10 to 1000 |  | 
25 | O=C(NS(=O)(=O)C(F)(F)F)c1ccc2c(C3CCCCC3)c3n(c2c1)CC(C(=O)N1CCOCC1)=Cc1ccccc1-3 | 1000 to 10000 | 10 to 1000 |  | 
26 | O=C(NS(=O)(=O)C(F)(F)F)c1ccc2c(C3CCCCC3)c3n(c2c1)CC(C(=O)N1CCOCC1)Cc1ccccc1-3 (stereo not shown) | 70 to 1000 | 10 to 1000 |  | 
27 | O=C(NS(=O)(=O)N1CCOCC1)c1ccc2c(C3CCCCC3)c3n(c2c1)CC(C(=O)N1CCOCC1)=Cc1ccccc1-3 | 70 to 1000 | 10 to 1000 |  | 

Row | Compound | EC50 (HCV replicon; Table 1) [nM] | IC50 (HCV NS5B; Table 1, read-out: IC50*) [nM] | EC50 (HCV replicon; Table 1a) [nM] | IC50 (HCV NS5B; Table 1a, read-out: IC50*) [nM]
28 | O=C(NS(=O)(=O)N1CCOCC1)c1ccc2c(C3CCCCC3)c3n(c2c1)CC(C(=O)N1CCOCC1)Cc1ccccc1-3 (stereo not shown) | 70 to 1000 | 10 to 1000 |  | 
29 | CN1CCN(S(=O)(=O)NC(=O)c2ccc3c(C4CCCCC4)c4n(c3c2)CC(C(=O)N2CCOCC2)=Cc2ccccc2-4)CC1 | 70 to 1000 | 10 to 1000 |  | 
30 | O=C(NS(=O)(=O)N1CCOCC1)c1ccc2c(C3CCCCC3)c3n(c2c1)CC(C(=O)N1CCC(N2CCOCC2)CC1)=Cc1ccccc1-3 | 70 to 1000 | 10 to 1000 |  | 
31 | C[C@@H]1CN(C(=O)C2=Cc3ccccc3-c3c(C4CCCCC4)c4ccc(C(=O)NS(=O)(=O)N5CCOCC5)cc4n3C2)C[C@H](C)O1 | 70 to 1000 | 10 to 1000 |  | 
32 | CC(=O)N1CCN(C(=O)C2=Cc3ccccc3-c3c(C4CCCCC4)c4ccc(C(=O)NS(=O)(=O)N5CCOCC5)cc4n3C2)CC1 | 70 to 1000 | 10 to 1000 |  | 
33 | COC(=O)C1=Cc2ccccc2-c2c(C3CCCCC3)c3ccc(C(=O)NS(=O)(=O)N4CCOCC4)cc3n2C1 | 70 to 1000 | 10 to 1000 |  | 
34 | CN(C)S(=O)(=O)NC(=O)c1ccc2c(C3CCCCC3)c3n(c2c1)CC(C(=O)N1CCCC(F)C1)=Cc1ccccc1-3 (stereo not shown) | 70 to 1000 | 10 to 1000 |  | 
35 | CN(C)S(=O)(=O)NC(=O)c1ccc2c(C3CCCCC3)c3n(c2c1)CC(C(=O)N1CCC(N2CCCC(F)C2)CC1)=Cc1ccccc1-3 (stereo not shown) | 70 to 1000 | 10 to 1000 |  | 
36 | CN(C)S(=O)(=O)NC(=O)c1ccc2c(C3CCCCC3)c3n(c2c1)CC(C(=O)N1CCC(N2CCCC(F)(F)C2)CC1)=Cc1ccccc1-3 | 70 to 1000 | 10 to 1000 |  | 
37 | CN(C)S(=O)(=O)NC(=O)c1ccc2c(C3CCCCC3)c3n(c2c1)CC(C(=O)N1CC[C@@H](F)C1)=Cc1ccccc1-3 | 70 to 1000 | 10 to 1000 |  | 
38 | CN(C)S(=O)(=O)NC(=O)c1ccc2c(C3CCCCC3)c3n(c2c1)CC(C(=O)N1CC[C@H](F)C1)=Cc1ccccc1-3 | 70 to 1000 | 10 to 1000 |  | 
39 | CN(C)S(=O)(=O)NC(=O)c1ccc2c(C3CCCCC3)c3n(c2c1)CC(C(=O)N1CCC(N2CC[C@@H](F)C2)CC1)=Cc1ccccc1-3 | 70 to 1000 | 10 to 1000 |  | 
40 | CN(C)S(=O)(=O)NC(=O)c1ccc2c(C3CCCCC3)c3n(c2c1)CC(C(=O)N1CCC(N2CC[C@H](F)C2)CC1)=Cc1ccccc1-3 | 70 to 1000 | 10 to 1000 |  | 
41 | CN(C)S(=O)(=O)NC(=O)c1ccc2c(C3CCCCC3)c3n(c2c1)CC(C(=O)N1CCC(N2CCC(F)CC2)CC1)=Cc1ccccc1-3 | 70 to 1000 | 10 to 1000 |  | 
42 | CN(C)S(=O)(=O)NC(=O)c1ccc2c(C3CCCCC3)c3n(c2c1)CC(C(=O)N1CCCC(C(N)=O)C1)=Cc1ccccc1-3 (stereo not shown) | 70 to 1000 | 10 to 1000 |  | 
43 | O=C(O)c1ccc2c(C3CCCCC3)c3n(c2c1)C/C(=N/O)Cc1ccccc1-3 | 1000 to 10000 | 10 to 1000 |  | 
44 | COC(=O)c1ccc2c(C3CCCCC3)c3n(c2c1)CC(NC(=O)N1C[C@@H](C)O[C@@H](C)C1)Cc1cc(OC)ccc1-3 (stereo partly shown) |  |  | 30 to 1000 | 10 to 1000
45 | COc1ccc2c(c1)C=C(C(=O)N1CCC(C(=O)N3CCOCC3)CC1)Cn1c-2c(C2CCCCC2)c2ccc(C(=O)NS(=O)(=O)N(C)C)cc21 |  |  | 30 to 1000 | 10 to 1000
46 | COc1ccc2c(c1)C=C(C(=O)N1CCOC(CNC(C)=O)C1)Cn1c-2c(C2CCCCC2)c2ccc(C(=O)NS(=O)(=O)N(C)C)cc21 (stereo not shown) |  |  | 30 to 1000 | < 20
47 | COc1ccc2c(c1)C=C(C(=O)N1C[C@@H](C)N(C(C)=O)[C@@H](C)C1)Cn1c-2c(C2CCCCC2)c2ccc(C(=O)NS(=O)(=O)N(C)C)cc21 |  |  | 30 to 1000 | 10 to 1000
48 | COc1ccc(-c2[nH]c3cc(C(=O)NS(=O)(=O)N(C)C)ccc3c2C2CCCCC2)c(C(=O)N(C)CC(=O)N(C)C)c1 |  |  | 30 to 1000 | 10 to 1000
49 | CC(=O)NN(C)C(=O)C1Cc2ccccc2-c2c(C3CCCCC3)c3ccc(C(=O)NS(=O)(=O)N(C)C)cc3n2C1 (stereo not shown) |  |  | 30 to 1000 | 10 to 1000
50 | COc1ccc2c(c1)C=C(C(=O)N(C)C[C@@H]1CCCO1)Cn1c-2c(C2CCCCC2)c2ccc(C(=O)NS(=O)(=O)N(C)C)cc21 |  |  | 30 to 1000 | 10 to 1000
51 | COc1ccc2c(c1)C=C(C(=O)N(C)C[C@@H]1CCCO1)Cn1c-2c(C2CCCCC2)c2ccc(C(=O)O)cc21 |  |  | 1000 to 10000 | 10 to 1000
52 | CCOC(=O)[C@H]1C[C@@H](O)CN1C(=O)C1=Cc2cc(OC)ccc2-c2c(C3CCCCC3)c3ccc(C(=O)NS(=O)(=O)N(C)C)cc3n2C1 |  |  | 30 to 1000 | < 20
53 | COc1ccc2c(c1)C=C(C(=O)N1CCN(C(=O)C3CC3)CC1)Cn1c-2c(C2CCCCC2)c2ccc(C(=O)NS(=O)(=O)N(C)C)cc21 |  |  | 30 to 1000 | 10 to 1000

From US7473688B2, “Indolobenzazepine HCV NS5B inhibitors” (Bristol-Myers Squibb Company, priority 2005, dated 2009)
